The values below are quoted from earlier work in patent US4127517A, “Novel docosapeptides, intermediates therefore and pharmaceutical compositions and methods employing said docosapeptides” (priority 1977, dated 1978).

Series [1] relates to brain opiate receptor sites.
For series [2] the following is noted: injected directly into the brain of the rat.

For the substance “H-Tyr-Gly-Gly-Phe-Met-OH [methionine enkephalin]”, the “binding to partially purified brain opiate receptor sites” value in series [1] is given as “binds stereo-specifically”. Moreover, in series [2], the analgesic activity result was “weak analgesic agent of short duration”.
